# Data published in patent US7781421B2, “Neuroactive 13, 24-cyclo-18, 21-dinorcholanes and structurally related pentacyclic steriods” (Washington University, priority 2003, dated 2010).
# Where two headings read alike, the source gives them in different places.
# Legend:
# [1] = biological target: GABAA receptor ([35S]-TBPS binding site, rat brain cortical membranes); experiment: Displacement of [35S]-TBPS binding, rat brain cortical membranes; settings: 5 μM GABA, 2 nM [35S]-TBPS; ± standard error of the means
# Experimental: Rat brain cortical membranes were prepared with minor modifications of the method previously reported. (Hawkinson, J. E., et al., Correlation of Neuroactive Steroid Modulation of [^35S]t-Butylbicyclophosophorothionate and [^3H]Flunitrazepam Binding and γ-Aminobutyric AcidA Receptor Function, Mol. Pharmacol., 1994, 46, 977-985). Briefly, frozen rat cerebral cortices (Pel-freez, Rogers, Ak.) were thawed and homogenized in 10 volumes of ice-cold 0.32 M sucrose using a glass/Teflon pestle. The homogenate was centrifuged at 1500×g for 10 min at 4° C. The resultant supernatant was centrifuged at 10,000×g for 30 min at 4° C. The pellet (P2) from this centrifugation was resuspended in 200 mM NaCl, 50 mM potassium phosphate buffer, pH 7.4, and centrifuged at 10,000×g for 20 min at 4° C. This washing procedure was done a total of three times, and then pellets were resuspended in buffer (˜4 mL/brain) using a glass/Teflon pestle. The membrane suspension was aliquoted, frozen in liquid nitrogen, and stored at −80° C. prior to use.
# [^35S]-TBPS Binding assays were done according to the procedure described previously (Hawkinson, J. E., et al., Correlation of Neuroactive Steroid Modulation of [^35S]t-Butylbicyclophosophorothionate and [^3H]Flunitrazepam Binding and γ-Aminobutyric AcidA Receptor Function, Mol. Pharmacol., 1994, 46, 977-985) with modifications. Briefly, aliquots of membrane solution (0.5 mg/mL final protein concentration in assay) were incubated with 5 μM GABA, 2 nM [^35S]-TBPS (45-120 Ci/mmol), and 5 μL aliquots of steroid in DMSO solution (final assay concentrations ranged from 1 nM to 10 μM), and brought to a final volume of 1 mL with 200 mM NaCl, 50 mM potassium phosphate buffer, pH 7.4. […] Assay tubes were incubated for 2 hr at room temperature. A Brandel (Gaithersburg, Md.) cell harvester was used for filtration of the assay tubes through Whatman/GF/C glass filter paper. Filter paper was rinsed with 4 mL of ice-cold buffer three times. Radioactivity bound to the filters was read by liquid scintillation counter and data was fit using Sigma Plot version 3.0 to the Hill equation i. f=Rmax/{1+([conc]/IC50)^n}
# Where Rmax is the maximal effect, [conc] is steroid concentration, IC50 is the half-maximal inhibitor concentration and n is the Hill coefficient. Each data point was determined in triplicate and 2-3 full concentration-response curves were generated for each steroid.
# [2] = biological target: T1, rat α1β2γ2 GABAA Receptor (Rattus norvegicus, UniProt P18508+P62813+P63138, INS375LLRMFSFK); experiment: Xenopus oocyte two-electrode voltage-clamp electrophysiology; type: cell-based; settings: for Oocyte electrophysiology, ratio of currents in presence/absence of compound, 0.1 μM: 0.1 μM compound co-applied with 2 μM GABA; for Oocyte electrophysiology, ratio of currents in presence/absence of compound, 0.1 μM / Oocyte electrophysiology, ratio of currents in presence/absence of compound, 1 μM / Oocyte electrophysiology, ratio of currents in presence/absence of compound, 10 μM: −70 mV; for Oocyte electrophysiology, ratio of currents in presence/absence of compound, 1 μM: 1 μM compound co-applied with 2 μM GABA; for Oocyte electrophysiology, ratio of currents in presence/absence of compound, 10 μM: 10 μM compound co-applied with 2 μM GABA; for Gating (10 μM), ratio of compound only current/2 μM GABA current: direct current gated by 10 μM compound in the absence of GABA
# T1 construct: from linearized pBluescript vectors containing receptor coding regions; expressed in transfected cells; host or cells: Xenopus laevis oocytes injected with in vitro transcribed capped mRNA
# T1 sequence (P62813 28-455, stated change not applied): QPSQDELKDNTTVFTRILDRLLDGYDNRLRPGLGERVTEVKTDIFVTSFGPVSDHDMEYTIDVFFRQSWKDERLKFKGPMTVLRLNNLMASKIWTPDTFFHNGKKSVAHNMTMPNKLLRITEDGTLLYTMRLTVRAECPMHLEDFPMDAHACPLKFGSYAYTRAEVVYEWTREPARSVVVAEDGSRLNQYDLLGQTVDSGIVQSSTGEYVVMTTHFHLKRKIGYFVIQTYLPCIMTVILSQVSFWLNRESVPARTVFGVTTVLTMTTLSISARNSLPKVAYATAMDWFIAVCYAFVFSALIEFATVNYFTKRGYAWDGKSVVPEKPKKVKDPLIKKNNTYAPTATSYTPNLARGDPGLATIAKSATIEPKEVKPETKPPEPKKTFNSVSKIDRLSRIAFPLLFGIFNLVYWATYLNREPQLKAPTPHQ
# T1 sequence (P63138 26-474, stated change not applied): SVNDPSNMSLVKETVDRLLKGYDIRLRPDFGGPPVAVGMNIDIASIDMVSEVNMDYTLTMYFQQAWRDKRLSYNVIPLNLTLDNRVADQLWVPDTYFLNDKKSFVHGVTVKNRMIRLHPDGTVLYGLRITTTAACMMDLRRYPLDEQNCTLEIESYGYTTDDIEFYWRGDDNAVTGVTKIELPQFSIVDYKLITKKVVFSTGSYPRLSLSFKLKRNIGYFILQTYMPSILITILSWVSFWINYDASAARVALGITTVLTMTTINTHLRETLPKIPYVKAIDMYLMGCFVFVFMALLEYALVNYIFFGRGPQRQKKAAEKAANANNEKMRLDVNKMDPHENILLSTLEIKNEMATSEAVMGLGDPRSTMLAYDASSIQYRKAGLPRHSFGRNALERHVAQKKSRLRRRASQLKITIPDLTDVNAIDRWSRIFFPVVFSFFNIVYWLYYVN
# T1 sequence (P18508 with tags, fused parts or gaps INS375LLRMFSFK): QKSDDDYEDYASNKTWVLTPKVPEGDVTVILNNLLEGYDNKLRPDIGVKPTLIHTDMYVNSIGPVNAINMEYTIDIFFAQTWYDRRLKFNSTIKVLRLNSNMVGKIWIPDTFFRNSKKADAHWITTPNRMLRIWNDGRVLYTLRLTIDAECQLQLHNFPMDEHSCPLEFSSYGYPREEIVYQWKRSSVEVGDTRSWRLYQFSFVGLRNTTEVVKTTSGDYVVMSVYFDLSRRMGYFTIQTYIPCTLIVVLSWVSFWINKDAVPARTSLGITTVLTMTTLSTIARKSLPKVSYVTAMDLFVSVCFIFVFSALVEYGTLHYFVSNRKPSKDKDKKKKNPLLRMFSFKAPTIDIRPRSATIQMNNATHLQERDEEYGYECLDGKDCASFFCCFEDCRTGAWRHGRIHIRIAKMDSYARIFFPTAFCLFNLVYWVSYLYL
# Experimental: Stage V-VI oocytes were harvested from sexually mature female Xenopus laevis (Xenopus One, Northland, Mich.) under 0.1% tricaine (3-aminobenzoic acid ethyl ester) anesthesia. Oocytes were defolliculated by shaking for 20 min at 37° C. in collagenase (2 mg/ml) dissolved in calcium-free solution containing (in mM): 96 NaCl, 2 KCl, 1 MgCl2, and 5 HEPES at pH 7.4. Capped mRNA, encoding rat GABAA receptor α1, β2 and γ2L subunits was transcribed in vitro using the mMESSAGE mMachine Kit (Ambion, Austin, Tex.) from linearized pBluescript vectors containing receptor coding regions. Subunit transcripts were injected in equal parts (20-40 ng total RNA) 8-24 hours following defolliculation. Oocytes were incubated up to 5 days at 18° C. in ND96 medium containing (in mM): 96 NaCl, 1 KCl, 1 MgCl2, 2 CaCl2 and 5 HEPES at pH 7.4, supplemented with pyruvate (5 mM), penicillin (100 U/ml), streptomycin (100 μg/ml) and gentamycin (50 μg/ml). The cDNAs for the rat GABAA-receptor subunits were originally provided by A. Tobin, University of California, Los Angels (α1), P. Malherbe, Hoffman-La Roche, Switzerland (β2), C. Fraser, National Institute on Alcohol Abuse and Alcoholism (γ2L).
# Two-electrode voltage-clamp experiments were performed with a Warner OC725 amplifier 2-5 days following RNA injection. The extracellular recording solution was ND96 medium with no supplements. Intracellular recording pipettes were filled with 3 M KCl and had open tip resistances of ˜1 MΩ. Drugs were applied from a common tip via a gravity-driven multibarrel drug-delivery system. Steroids were simultaneously co-applied with GABA. Cells were clamped at −70 mV for all experiments, and peak current during 20 s drug applications was measured. Data acquisition and analysis were performed with pCLAMP software (Axon Instruments, California). Statistical differences were determined using a two-tailed Student's t-test.
# The GABA concentration used for the control response was 2 μM. Each compound was evaluated on at least four different oocytes at the concentrations indicated, and the results reported are the ratio of the currents measured in the presence/absence of added compound. (G) represents direct current gated by 10 μM compound in the absence of GABA, and this current is reported as the ratio of compound only current/2 μM GABA current. Error limits are calculated as standard error of the means.
# [3] = system: Xenopus laevis tadpoles; experiment: Tadpole loss of righting (LRR) and swimming (LSR) reflexes; type: in vivo; settings: 3 h equilibration at room temperature; for EC50: read-out: LSR EC50 (loss of swimming response)
# Experimental: Tadpole LRR was measured as described previously. (See, Wittmer, L. L., et al., Enantioselectivity of steroid-induced γ-aminobutyric acidA receptor modulation and anesthesia, Mol. Phar., 1996, 50:1581-1586). Briefly, groups of 10 early prelimb-bud stage Xenopus laevis tadpoles (Nasco, Fort Atkinson, Wis.) were placed in 100 mL of oxygenated Ringer's stock solution containing various concentrations of compound. Compounds were added from a 10 mM DMSO stock (final concentration of DMSO in test solutions ≦0.1%). After equilibrating at room temperature for 3 h, tadpoles were evaluated using the LRR and LSR behavioral endpoints. LRR was defined as failure of the tadpole to right itself within 5 sec after being flipped by a smooth glass rod. LSR was defined as failure of the tadpole to swim when touched by a smooth glass rod. In general, the tadpoles regained their righting and swimming reflexes when placed in fresh oxygenated Ringer's solution. Control beakers containing up to 0.6% DMSO produced no LRR or LSR in tadpoles.
# Tadpole LRR and LSR concentration-response curves were fit using Sigma Plot version 3.0 to the Hill equation f=Rmax/{1+([conc]/EC50)^n}
# where Rmax is the maximum effect, [conc] is the steroid concentration, EC50 is the half-maximal effective concentration, and n is the Hill coefficient.
SMILES,IC50 [1] [nM],"Oocyte electrophysiology, ratio of currents in presence/absence of compound, 0.1 μM [2]","Oocyte electrophysiology, ratio of currents in presence/absence of compound, 1 μM [2]","Oocyte electrophysiology, ratio of currents in presence/absence of compound, 10 μM [2]","Gating (10 μM), ratio of compound only current/2 μM GABA current [2]",LRR ED50 (loss of righting response) [3] [nM],"EC50 ([3]; Xenopus laevis, 3 h) [nM]",melting point [°C],EC50 [3] [nM],"Reversibility of steroid effect on GABA current (FIG. 1A) ([2]; 500 nM compound, 2 μM GABA, GABA recovery panel)",LSR EC50 (loss of swimming response) [3]
"CC12CCC(O)CC1CCC1C2CCC23C(=O)CCCC2CCC13 (stereo not drawn) [Compound 5b, (3α,5β)-3-Hydroxy-13,24-cyclo-18,21-dinorcholan-24-one]",329 ± 35,1.26 ± 0.05,3.45 ± 0.29,10.42 ± 1.65,0.04 ± 0.02,400 ± 120,890,177 to 178,,,
"C[C@]12CC[C@@H](O)C[C@@H]1CCC1C3CC[C@@H]4C(=O)CCC[C@]34CCC12 (stereo partly drawn) [Compound 2a, (3α,5α)-3-Hydroxy-13,24-cyclo-18,21-dinorcholan-20-one]",514 ± 64,1.01 ± 0.03,1.44 ± 0.03,,0 ± 0.1,1360 ± 200,5450 ± 70,200 to 202,,,
"CC12CCC(O)CC1CCC1C2CCC23CC4OC4C(=O)C2CCC13 [Compound 19a, (3α,5α,22S,23S)-22,23-Epoxy-3-hydroxy-13,24-cyclo-18,21-dinorcholan-20-one]",370 ± 42,1.47 ± 0.17,1.92 ± 0.23,8.90 ± 2.10,0.23 ± 0.24,1750 ± 460,10000,238 to 240,,,
"CC12CCC(O)CC1CCC1C2CCC23C(=O)CCCC2CCC13 (stereo not drawn) [Compound 5a, (3α,5α)-3-Hydroxy-13,24-cyclo-18,21-dinorcholan-24-one]",301 ± 20,1.22 ± 0.23,3.05 ± 0.79,10.73 ± 1.87,0.39 ± 0.69,320 ± 20,,203 to 204,1730 ± 30,,
"CC12CCC(O)CC1CCC1C2CCC23C(=O)C=CCC2CCC13 (stereo not drawn) [Compound 35a, (3α,5α)-3-Hydroxy-13,24-cyclo-18,21-dinorchol-22-en-24-one]",197 ± 23,1.98 ± 0.25,8.33 ± 0.75,9.45 ± 4.19,0.07 ± 0.10,1020 ± 0,,242 to 243,2660,readily reversible,
"CC12CCC(O)CC1CCC1C2CCC23CCC=CC2CCC13 (stereo not drawn) [Compound 13a, (3α,5α)-13,24-Cyclo-18,21-dinorchol-20(22)-en-3-ol]",569 ± 28,1.53 ± 0.45,2.12 ± 0.40,2.68 ± 0.42,−0.32 ± 0.15,>10000,,169 to 170,,,None @ 10
"CC12CCC(O)CC1CCC1C2CCC23C=C(Br)C(=O)C2CCC13 (stereo not drawn) [Compound 95, (3α,5α)-21-bromo-3-hydroxy-18,21-cyclopregn-18(21)-en-20-one]",94 ± 17,1.25 ± 0.08,1.99 ± 0.20,8.75 ± 1.92,0.02 ± 0.02,290 ± 40,550 ± 90,220 to 222.5,,,
"CC12CCC(O)CC1CCC1C2CCC23CC=CC(=O)C2CCC13 (stereo not drawn) [Compound 11b, (3α, 5β)-3-Hydroxy-13,24-cyclo-18,21-dinorchol-22-en-20-one]",1570,1.07 ± 0.17,1.17 ± 0.11,2.34 ± 0.37,0.11 ± 0.04,2560 ± 1390,8950 ± 10,253 to 254,,,
